From ChEMBL document CHEMBL1201862, “PubChem BioAssay data set” (2004)
Calls of active or inactive are those of the source.

What was measured:
[1] = P. falciparum Dd2 growth inhibitors, dose response, SYBR Green, cherry-picked samples (AID 1159567); assay type: functional, cell-based
[2] = P. falciparum ATP4 D1247Y mutant growth inhibitors, dose response, NITD609-resistant line, SYBR Green, dry powder (AID 1159571); assay type: functional, cell-based;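 also: parasites synchronized at ring stage by sorbitol before testing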
[3] = P. falciparum 3D7-ScDHODH growth inhibitors, dose response, SYBR Green, dry powder samples (AID 1159570); assay type: functional, cell-based;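 also: parasite growth measured after 72 hours of compound exposure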
[4] = Plasmodium falciparum Dd2 Sybr green parasite growth Measured in Cell-Based and Microorganism Combination System Using Plate Reader - 2153-01_Inhibitor_Dose_DryPowder_Activity_Set3.; assay type: functional
[5] = HepG2 cell cytotoxicity, dose response, cytotoxicity control, plate reader, dry powder samples (AID 1159569); assay type: functional, cell-based;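 also: inhibitor potency with signal falling toward the positive control level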
[6] = P. falciparum Dd2 growth inhibitors, dose response, SYBR Green, dry powder samples (AID 1159566); assay type: functional, cell-based;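 also: potency for growth inhibition with lower SYBR green DNA signal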
Caspase-6 = target: T1, Caspase-6 (Homo sapiens, UniProt P55212); test: human caspase-6 inhibitors, dose response, biochemical, VEID-R110 fluorescence, cherry-pick (AID 720632)
T1 sequence (P55212 whole entry): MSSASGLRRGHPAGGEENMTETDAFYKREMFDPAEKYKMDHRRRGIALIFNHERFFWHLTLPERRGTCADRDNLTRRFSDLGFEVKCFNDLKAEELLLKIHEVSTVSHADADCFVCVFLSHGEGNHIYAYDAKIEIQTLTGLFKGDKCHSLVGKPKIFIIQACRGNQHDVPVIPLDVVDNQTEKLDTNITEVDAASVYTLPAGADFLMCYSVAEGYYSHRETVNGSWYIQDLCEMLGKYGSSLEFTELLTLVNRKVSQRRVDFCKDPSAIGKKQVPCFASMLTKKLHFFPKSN

[7] = Counterscreen for activators of the function of SWI/SNF related, matrix associated, actin dependent regulator of chromatin, subfamily a, member 2 (SMARCA2, BRM): Luminescence-based cell-based high throughput dose response assay to identify non-selective compounds using the VP16 reporter assay.; assay type: functional
ELAV-like protein 1 = ELAV-like protein 1 (Homo sapiens, UniProt Q15717); test: Identify HuR specific inhibitors.; assay type: functional
ELAV-like protein 1, sequence (Q15717 whole entry, the tested form may be a part): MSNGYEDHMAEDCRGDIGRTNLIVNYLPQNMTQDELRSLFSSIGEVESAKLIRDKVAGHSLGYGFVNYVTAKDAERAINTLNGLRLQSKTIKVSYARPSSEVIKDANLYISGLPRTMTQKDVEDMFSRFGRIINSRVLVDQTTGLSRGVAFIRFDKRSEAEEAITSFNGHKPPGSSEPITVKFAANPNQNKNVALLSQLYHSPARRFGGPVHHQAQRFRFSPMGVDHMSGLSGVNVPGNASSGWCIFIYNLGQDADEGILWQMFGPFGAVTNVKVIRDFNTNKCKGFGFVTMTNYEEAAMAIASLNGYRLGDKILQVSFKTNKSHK

[8] = target: T2, Carboxy-terminal domain RNA polymerase II polypeptide A small phosphatase 1 (Homo sapiens, UniProt Q9GZU7); test: inhibitors of CTDSP1, concentration-response testing, biochemical assay, absorbance-based, actives from ultra-high-throughput screening (AID 540297); assay type: functional
T2 sequence (Q9GZU7 whole entry): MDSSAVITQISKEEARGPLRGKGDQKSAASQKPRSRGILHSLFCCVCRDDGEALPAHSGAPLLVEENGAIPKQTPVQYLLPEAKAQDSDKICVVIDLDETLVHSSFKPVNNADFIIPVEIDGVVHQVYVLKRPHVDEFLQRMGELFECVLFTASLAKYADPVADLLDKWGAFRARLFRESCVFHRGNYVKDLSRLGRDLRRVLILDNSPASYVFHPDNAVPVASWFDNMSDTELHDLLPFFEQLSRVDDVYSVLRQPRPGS

[9] = target: SWI/SNF-related matrix-associated actin-dependent regulator of chromatin subfamily A member 2 (Homo sapiens, UniProt P51531); test: Luminescence-based cell-based high throughput dose response assay to identify activators of the function of SWI/SNF related, matrix associated, actin dependent regulator of chromatin, subfamily a, member 2 (SMARCA2, BRM).; assay type: functional
SWI/SNF-related matrix-associated actin-dependent regulator of chromatin subfamily A member 2, sequence (P51531 whole entry): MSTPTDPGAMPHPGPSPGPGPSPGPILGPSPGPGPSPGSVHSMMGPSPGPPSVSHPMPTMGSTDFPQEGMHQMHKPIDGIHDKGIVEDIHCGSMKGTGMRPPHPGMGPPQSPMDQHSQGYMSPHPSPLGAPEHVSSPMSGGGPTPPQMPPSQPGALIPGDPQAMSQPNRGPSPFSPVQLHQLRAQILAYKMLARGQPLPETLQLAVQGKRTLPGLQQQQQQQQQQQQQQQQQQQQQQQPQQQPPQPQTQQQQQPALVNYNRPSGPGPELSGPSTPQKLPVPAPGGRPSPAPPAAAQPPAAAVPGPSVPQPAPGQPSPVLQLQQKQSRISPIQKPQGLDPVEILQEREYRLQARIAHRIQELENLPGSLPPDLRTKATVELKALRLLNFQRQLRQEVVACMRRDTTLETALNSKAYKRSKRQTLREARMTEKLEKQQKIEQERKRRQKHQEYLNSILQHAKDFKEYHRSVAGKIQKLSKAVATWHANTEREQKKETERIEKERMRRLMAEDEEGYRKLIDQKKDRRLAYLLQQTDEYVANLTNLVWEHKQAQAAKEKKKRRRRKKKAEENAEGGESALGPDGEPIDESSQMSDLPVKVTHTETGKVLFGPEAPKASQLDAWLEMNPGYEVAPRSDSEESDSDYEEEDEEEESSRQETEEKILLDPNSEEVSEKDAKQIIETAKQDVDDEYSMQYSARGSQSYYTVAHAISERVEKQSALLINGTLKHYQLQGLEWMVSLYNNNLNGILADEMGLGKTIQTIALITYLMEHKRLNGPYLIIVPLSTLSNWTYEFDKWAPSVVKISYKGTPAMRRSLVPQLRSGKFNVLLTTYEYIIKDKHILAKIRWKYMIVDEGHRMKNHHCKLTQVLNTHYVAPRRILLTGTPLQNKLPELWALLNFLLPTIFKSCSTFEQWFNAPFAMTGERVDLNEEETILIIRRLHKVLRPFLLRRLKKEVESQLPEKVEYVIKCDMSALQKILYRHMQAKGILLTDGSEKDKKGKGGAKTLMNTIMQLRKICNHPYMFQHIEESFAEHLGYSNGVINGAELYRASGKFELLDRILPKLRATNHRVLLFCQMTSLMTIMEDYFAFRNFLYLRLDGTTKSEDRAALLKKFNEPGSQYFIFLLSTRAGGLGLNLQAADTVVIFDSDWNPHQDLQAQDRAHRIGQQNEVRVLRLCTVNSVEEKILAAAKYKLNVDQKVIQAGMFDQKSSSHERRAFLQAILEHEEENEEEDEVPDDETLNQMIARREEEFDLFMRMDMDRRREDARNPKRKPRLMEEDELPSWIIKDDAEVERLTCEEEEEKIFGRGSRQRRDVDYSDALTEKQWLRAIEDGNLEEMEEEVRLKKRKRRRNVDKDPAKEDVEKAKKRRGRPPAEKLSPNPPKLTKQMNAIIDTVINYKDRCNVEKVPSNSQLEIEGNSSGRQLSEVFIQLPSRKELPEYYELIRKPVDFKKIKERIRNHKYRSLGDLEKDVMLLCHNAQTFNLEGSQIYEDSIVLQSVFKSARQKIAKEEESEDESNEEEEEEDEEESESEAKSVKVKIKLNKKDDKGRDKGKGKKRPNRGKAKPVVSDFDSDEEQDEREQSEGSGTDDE

Phospholipase D1 = Phospholipase D1 (Homo sapiens, UniProt Q13393); test: PLD1 Cellular Concentration Response Study.; assay type: functional
Phospholipase D1, sequence (Q13393 whole entry): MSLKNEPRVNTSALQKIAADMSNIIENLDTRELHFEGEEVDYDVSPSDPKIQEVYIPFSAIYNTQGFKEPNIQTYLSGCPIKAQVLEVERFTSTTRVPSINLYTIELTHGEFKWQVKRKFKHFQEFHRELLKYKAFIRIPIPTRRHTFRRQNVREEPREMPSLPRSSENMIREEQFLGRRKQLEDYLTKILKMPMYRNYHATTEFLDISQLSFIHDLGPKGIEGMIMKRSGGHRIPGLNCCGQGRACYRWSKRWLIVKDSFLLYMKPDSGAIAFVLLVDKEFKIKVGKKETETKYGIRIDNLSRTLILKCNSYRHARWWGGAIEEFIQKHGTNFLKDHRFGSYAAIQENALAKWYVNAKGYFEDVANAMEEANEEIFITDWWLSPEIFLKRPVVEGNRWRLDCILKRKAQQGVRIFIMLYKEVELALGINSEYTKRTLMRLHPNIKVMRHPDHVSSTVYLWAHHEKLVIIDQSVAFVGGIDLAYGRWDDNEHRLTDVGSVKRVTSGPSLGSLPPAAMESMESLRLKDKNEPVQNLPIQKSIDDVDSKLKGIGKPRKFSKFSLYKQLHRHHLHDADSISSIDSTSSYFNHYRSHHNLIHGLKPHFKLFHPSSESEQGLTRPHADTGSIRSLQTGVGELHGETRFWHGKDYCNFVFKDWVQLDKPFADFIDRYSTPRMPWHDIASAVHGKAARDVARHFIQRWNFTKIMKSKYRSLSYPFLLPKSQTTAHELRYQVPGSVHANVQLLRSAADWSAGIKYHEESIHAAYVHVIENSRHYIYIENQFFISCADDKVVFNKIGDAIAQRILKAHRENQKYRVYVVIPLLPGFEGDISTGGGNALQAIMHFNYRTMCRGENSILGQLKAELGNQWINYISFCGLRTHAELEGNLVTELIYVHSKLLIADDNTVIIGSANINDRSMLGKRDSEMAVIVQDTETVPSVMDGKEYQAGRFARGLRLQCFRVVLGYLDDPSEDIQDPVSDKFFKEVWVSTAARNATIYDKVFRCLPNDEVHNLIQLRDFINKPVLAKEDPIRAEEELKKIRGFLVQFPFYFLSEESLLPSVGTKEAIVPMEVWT

Phospholipase D2 [10] = target: T3, Phospholipase D2 (Homo sapiens, UniProt O14939); test: PLD2 Cellular Concentration Response Study.; assay type: functional
T3 sequence (O14939 whole entry): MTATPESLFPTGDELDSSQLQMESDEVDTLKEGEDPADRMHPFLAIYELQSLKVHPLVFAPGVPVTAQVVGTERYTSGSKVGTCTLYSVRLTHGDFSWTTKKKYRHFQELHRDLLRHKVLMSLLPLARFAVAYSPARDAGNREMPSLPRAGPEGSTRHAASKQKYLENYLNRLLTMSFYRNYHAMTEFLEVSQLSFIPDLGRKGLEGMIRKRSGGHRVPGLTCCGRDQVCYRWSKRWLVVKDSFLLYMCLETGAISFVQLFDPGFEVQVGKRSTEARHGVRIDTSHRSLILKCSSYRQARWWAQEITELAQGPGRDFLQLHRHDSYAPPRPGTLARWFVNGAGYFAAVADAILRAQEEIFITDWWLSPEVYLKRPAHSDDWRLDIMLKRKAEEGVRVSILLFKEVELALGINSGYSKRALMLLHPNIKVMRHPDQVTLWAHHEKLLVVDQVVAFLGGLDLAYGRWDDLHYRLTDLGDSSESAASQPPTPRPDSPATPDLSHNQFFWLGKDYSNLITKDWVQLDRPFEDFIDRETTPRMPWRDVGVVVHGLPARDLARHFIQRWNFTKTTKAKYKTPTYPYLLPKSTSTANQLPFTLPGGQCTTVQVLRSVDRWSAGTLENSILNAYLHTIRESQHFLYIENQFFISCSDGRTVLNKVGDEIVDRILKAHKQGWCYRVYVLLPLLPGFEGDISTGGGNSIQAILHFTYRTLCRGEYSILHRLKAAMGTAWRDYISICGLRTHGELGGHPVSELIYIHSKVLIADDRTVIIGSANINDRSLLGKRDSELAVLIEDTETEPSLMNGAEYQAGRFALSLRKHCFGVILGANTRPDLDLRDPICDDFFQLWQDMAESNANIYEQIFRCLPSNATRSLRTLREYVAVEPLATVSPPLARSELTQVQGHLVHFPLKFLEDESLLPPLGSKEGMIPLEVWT

Phospholipase D2 [11] = target: T3, Phospholipase D2; test: Discovery of PLD2 inhibitors using the Purified Enzyme Concentration Response Assay.; assay type: functional
Protein Tat = Protein Tat (Human immunodeficiency virus type 1 group M subtype B (isolate HXB2)(HIV-1), UniProt P04608); assay type: functional;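 also: tat binding to TAR RNA read out by fluorescence polarization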
Protein Tat, sequence (P04608 whole entry): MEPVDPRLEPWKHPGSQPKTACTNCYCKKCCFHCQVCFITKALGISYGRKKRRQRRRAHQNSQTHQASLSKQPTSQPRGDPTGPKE

[12] = HeLa 4N DNA content increase, dose response, cell-based, IC50 (AID 1117351); assay type: functional
[13] = cytotoxicity toward HT-29 cells – cell-based, CellTiter-Glo luminescence, IC50, dose response (AID 1117330); assay type: functional
[14] = cytotoxicity toward Colo320 cells – cell-based, CellTiter-Glo luminescence, IC50, dose response (AID 1117334); assay type: functional; details: COLO 320
[15] = cytotoxicity toward HCT116 cells – cell-based, CellTiter-Glo luminescence, IC50, dose response (AID 1117332); assay type: functional; details: HCT-116
[16] = CellTiter-Glo luminescent dose response of DLD-1 viability loss (AID 1117352); assay type: functional
[17] = Concentration-dependent survival of SW480 colon cancer line, luminescence detection with CellTiter-Glo, half-maximal inhibitory concentration (AID 1117338); assay type: functional
[18] = HeLa 2N DNA content increase, dose response, cell-based, IC50 (AID 1117349); assay type: functional
[19] = HCT116 cell viability decrease, GSK3B pretreatment – CellTiter-Glo, IC50, dose response (AID 1117339); assay type: functional; details: HCT-116
[20] = SNU-C1 cell viability reduction, dose response, CellTiter-Glo luminescence (AID 1117323); assay type: functional, cell-based
[21] = RKO cell viability reduction, dose response, CellTiter-Glo luminescence (AID 1117322); assay type: functional
Kallikrein-7 = Kallikrein-7 (Homo sapiens, UniProt P49862); test: Fluorescence Intensity-based biochemical primary high throughput dose response assay to identify activators of kallikrein-7 (K7) zymogen.
Kallikrein-7, sequence (P49862 whole entry, the tested form may be a part): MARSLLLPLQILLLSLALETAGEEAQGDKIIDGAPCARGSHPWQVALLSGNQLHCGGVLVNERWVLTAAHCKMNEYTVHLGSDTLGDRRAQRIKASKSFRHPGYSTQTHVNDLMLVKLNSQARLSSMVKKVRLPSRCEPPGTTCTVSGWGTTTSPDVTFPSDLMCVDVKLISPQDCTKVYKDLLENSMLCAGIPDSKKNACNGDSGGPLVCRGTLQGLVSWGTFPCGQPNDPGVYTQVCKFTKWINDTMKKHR

[22] = inhibitors of clade B AD8 Env fusion, dose response, cell-based, cherry-pick (AID 652062); assay type: functional;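 also: luciferase signal from cell-cell fusion driven by HIV-1 clade B AD8 Env; potency is for inhibitors of fusion seen as a drop in luminescence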
[23] = ZM109 Env clade C HIV-1 fusion inhibitors, dose response, HeLa effector, CEM target cells, luciferase, cherry-pick (AID 652058); assay type: functional, cell-based
[24] = inhibitors of HIV Env-driven cell fusion, dose response, cherry-pick (AID 652057); assay type: functional, cell-based
[25] = HIV Env cell-cell fusion inhibitors, dose response, HIV entry, plate reader, dry powder (AID 687023); assay type: functional, cell-based
[26] = off-target signal loss in HeLa-CEM21 co-culture – HeLa F-luc CTL cells, cherry-picked, counter-screen for HIV-1 Env fusion inhibitor project, dose response (AID 652040); assay type: functional, cell-based;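 also: potency for signal decrease marking cytotoxic or nonspecific inhibition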
[27] = CEM21 cell cytotoxicity, dose response, cytotoxicity control, plate reader, dry powder (AID 687026); assay type: functional, cell-based

## COc1ccc(CN2C[C@@H](C)[C@H](OC)CN(C)C(=O)c3ccc(NC(=O)c4nc5ccccc5s4)cc3OC[C@H]2C)cc1
[1]
  AC50: 0.854 µM (active)
[2]
  AC50: 1.25 µM (active)
[3]
  AC50: 3.16 µM (active)
[4]
  AC50: 1.06 µM (active)
[5]
  AC50: > 92 µM (inactive)
[6]
  AC50: 0.643 µM (active)

## CC#CC#Cc1cccc(=O)o1
Caspase-6
  AC50: 9.68 µM (active)
[7]
  EC50: > 91 µM (inactive)
ELAV-like protein 1
  IC50: 44.4 µM (active)
[8]
  IC50: 16.5 µM (active)
[9]
  EC50: > 91 µM (inactive)

## O=C(NCCN1CCC2(CC1)C(=O)NCN2Cc1cccnc1)c1ccc2ccccc2c1
Phospholipase D1
  IC50: 20 µM (active)
Phospholipase D2 [10]
  IC50: 0.46 µM (active)
Phospholipase D2 [11]
  IC50: 8.7 µM (active)

## CCCCn1c(N)c(N(CCOC)C(=O)c2cc(-c3ccco3)nc3ccccc23)c(=O)[nH]c1=O
Protein Tat
  IC50: > 100 µM (active)

## O=C(O)CCc1nc2ccccc2[nH]1 [PROCODAZOLE]
[12]
  IC50: > 10 µM (inactive)
[13]
  IC50: > 20 µM (inactive)
[14]
  IC50: > 20 µM (inactive)
[15]
  IC50: > 20 µM (inactive)
[16]
  IC50: 2.42 µM (active)
[17]
  IC50: > 20 µM (inactive)
[18]
  IC50: > 10 µM (inactive)
[19]
  IC50: 2.2 µM (active)
[20]
  IC50: > 20 µM (inactive)
[21]
  IC50: > 20 µM (inactive)

## Cc1nn(-c2ccccn2)c2nc(-c3cccs3)cc(C(=O)N3CCOCC3)c12
Kallikrein-7
  EC50: > 69.5 µM (inactive)

## O=C(Nc1ccc2c(c1)CCC2)C1CCN(c2c3c(nc4ncnn24)CCC3)CC1
[22]
  AC50: 3.88 µM (active)
[23]
  AC50: 1.4 µM (active)
[24]
  AC50: 9.44 µM (active)
[25]
  AC50: 5.08 µM (active)
[26]
  AC50: 41.2 µM (active)
[27]
  AC50: > 70 µM (inactive)
